Data taken from patent US10144737B2 (ETERNITY BIOSCIENCE INC., priority 2014, dated 2018).

Key:
Btk = target: T1, Btk (Homo sapiens, UniProt Q06187); assay: Btk kinase assay (ADP-Glo); type: biochemical; conditions: ADP-Glo Btk kinase assay kit; ATP 1.2 μM; 60 minutes at room temperature
T1 construct: purchased Promega (Madison, Wis.)
Description: Btk kinase assay—The Btk kinase assay was performed using a ADP-Glo Btk kinase assay kit purchased from Promega (Madison, Wis.). The assay was conducted according to the protocols provided in the assay kit. In brief, the enzyme reaction was carried out in the kinase reaction buffer containing Btk (2 ng/μl), ATP (1.2 μM), poly GT peptide (0.3 μM), DTT (40 nM), MnCl2 (1.4 mM), and 1 xkinase buffer (included in the kit) in the presence or absence of the tested articles at various concentrations in 384-well plate at room temperature (22±1° C.) for 60 minutes. The final reaction volume for each reaction was 10 μl. Then, 4 μl of ADP-Glo reagent (included in the kit) was added into the reaction and the plate was further incubated for another 40 minutes to terminate the reaction and deplete the remaining ATP. Finally, 10 μl of the kinase detection reagent was added into each reaction to simultaneously convert ADP to ATP and allow the newly synthesized ATP to be measured by a plate-reading luminometer (Victor X5 2030 multilabel reader, PerkinElmer). IC50 value was calculated using appropriate programs in GraphPad Prism by plotting the logarithm of the concentration versus percent inhibition as compared with a vehicle (DMSO) control.

TMD-8 cells = assay: Cell proliferation assay (CellTiter-Glo), TMD-8 cells; type: cell-based; conditions: Homo sapiens, TMD8, 120 h, 5-day treatment, read-out: TMD8 cell growth (GI50 μM)
Description: Cell proliferation assay: TMD-8 and SU-DHL-1 cells were maintained at 37° C. in a humidified atmosphere with 5% CO2 in the recommended medium and serum concentrations. For cell proliferation assay, cells were seeded in 96-well pates at a density of 5,000 to 10,000 cells per well and cultured overnight at 37° C. in recommended medium supplemented with 5-10% FBS. On the next day, the test articles at various concentrations or vehicle control (0.5% DMSO) were added into cell culture. After 5-day treatment, the growth of cells was assayed by the CellTiter-Glo® Luminestceaent Cell Viability Assay (Promega). IC50 values were calculated using GraphPad Prism by plotting the logarithm of the concentration versus percent inhibition of cell growth as compared with the vehicle control.

T1 sequence (Q06187 whole entry): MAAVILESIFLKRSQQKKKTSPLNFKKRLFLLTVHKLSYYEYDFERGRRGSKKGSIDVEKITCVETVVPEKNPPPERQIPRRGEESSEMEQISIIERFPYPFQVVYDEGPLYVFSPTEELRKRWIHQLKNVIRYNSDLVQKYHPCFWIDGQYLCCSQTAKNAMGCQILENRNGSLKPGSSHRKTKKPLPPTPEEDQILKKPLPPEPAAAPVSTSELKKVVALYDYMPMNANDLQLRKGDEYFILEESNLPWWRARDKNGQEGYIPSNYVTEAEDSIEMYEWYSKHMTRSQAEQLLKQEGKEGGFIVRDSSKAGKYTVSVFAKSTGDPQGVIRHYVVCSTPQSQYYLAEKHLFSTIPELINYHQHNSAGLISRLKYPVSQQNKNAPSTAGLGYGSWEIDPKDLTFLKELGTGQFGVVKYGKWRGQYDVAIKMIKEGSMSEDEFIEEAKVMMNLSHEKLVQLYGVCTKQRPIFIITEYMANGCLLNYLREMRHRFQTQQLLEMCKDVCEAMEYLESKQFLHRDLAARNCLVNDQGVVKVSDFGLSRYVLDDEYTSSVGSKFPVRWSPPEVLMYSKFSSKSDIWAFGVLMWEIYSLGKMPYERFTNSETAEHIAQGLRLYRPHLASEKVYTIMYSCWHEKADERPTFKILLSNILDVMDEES

Compound | IC50 (Btk) [nM] | GI50 (TMD-8 cells) [µM]
CN(C)C/C=C/C(=O)N1CCC(N(C)c2ncnc3[nH]c(C#CCOc4ccccc4)cc23)C1 (stereo not drawn) [Example 39, (E)-4-(dimethylamino)-1-(3-(methyl(6-(3-phenoxyprop-1-yn-1-yl)-7H-pyrrolo[2,3-d]pyrimidin-4-yl)amino)pyrrolidin-1-yl)but-2-en-1-one] | 192 | 0.299
C=CC(=O)N1CC[C@@H](Nc2ncnc3[nH]c(C#CCOc4ccccc4)cc23)C1 [Example 40, (R)-1-(3-((6-(3-phenoxyprop-1-yn-1-yl)-7H-pyrrolo[2,3-d]pyrimidin-4-yl)amino)pyrrolidin-1-yl)prop-2-en-1-one] | 0.3 | 0.004
CN(C)C/C=C/C(=O)N1CC[C@@H](Nc2ncnc3[nH]c(C#CCOc4ccccc4)cc23)C1 [Example 41, (R,E)-4-(dimethylamino)-1-(3-((6-(3-phenoxyprop-1-yn-1-yl)-7H-pyrrolo[2,3-d]pyrimidin-4-yl)amino)pyrrolidin-1-yl)but-2-en-1-one] | 0.08 | 0.069
C=CC(=O)N1CC[C@@H](Nc2ncnc3[nH]c(C#CCOc4ccccc4Cl)cc23)C1 [Example 43, (R)-1-(3-((6-(3-(2-chlorophenoxy)prop-1-yn-1-yl)-7H-pyrrolo[2,3-d]pyrimidin-4-yl)amino)pyrrolidin-1-yl)prop-2-en-1-one] | 0.14 | 0.001
CN(C)C/C=C/C(=O)N1CC[C@@H](Nc2ncnc3[nH]c(C#CCOc4ccccc4Cl)cc23)C1 [Example 44, (R,E)-1-(3-((6-(3-(2-chlorophenoxy)prop-1-yn-1-yl)-7H-pyrrolo[2,3-d]pyrimidin-4-yl)amino)pyrrolidin-1-yl)-4-(dimethylamino)but-2-en-1-one] | 0.11 | 0.012
C=CC(=O)N1CC[C@@H](Nc2ncnc3[nH]c(C#CCOc4ccccc4OC)cc23)C1 [Example 45, (R)-1-(3-((6-(3-(2-methoxyphenoxy)prop-1-yn-1-yl)-7H-pyrrolo[2,3-d]pyrimidin-4-yl)amino)pyrrolidin-1-yl)prop-2-en-1-one] | 1.1 | 0.0014
COc1ccccc1OCC#Cc1cc2c(N[C@@H]3CCN(C(=O)/C=C/CN(C)C)C3)ncnc2[nH]1 [Example 46, (R,E)-1-(3-((6-(3-(2-methoxyphenoxy)prop-1-yn-1-yl)-7H-pyrrolo[2,3-d]pyrimidin-4-yl)amino)pyrrolidin-1-yl)-4-(dimethylamino)but-2-en-1-one] | 0.04 | 0.017
CC#CC(=O)N1CC[C@@H](Nc2ncnc3[nH]c(C#CCOc4ccccc4F)cc23)C1 [Example 47, (R)-1-(3-((6-(3-(2-fluorophenoxy)prop-1-yn-1-yl)-7H-pyrrolo[2,3-d]pyrimidin-4-yl)amino)pyrrolidin-1-yl)but-2-yn-1-one] | 136 | 0.008
C/C=C/C(=O)N1CC[C@@H](Nc2ncnc3[nH]c(C#CCOc4ccccc4F)cc23)C1 [Example 48, (R,E)-1-(3-((6-(3-(2-fluorophenoxy)prop-1-yn-1-yl)-7H-pyrrolo[2,3-d]pyrimidin-4-yl)amino)pyrrolidin-1-yl)but-2-en-1-one] | 432 | 0.088
CN(C)C/C=C/C(=O)N1CC[C@@H](Nc2ncnc3[nH]c(C#CCOc4ccccc4F)cc23)C1 [Example 49, (R,E)-1-(3-((6-(3-(2-fluorophenoxy)prop-1-yn-1-yl)-7H-pyrrolo[2,3-d]pyrimidin-4-yl)amino)pyrrolidin-1-yl)-4-(dimethylamino)but-2-en-1-one] | < 0.03 | 0.017
C=CC(=O)N1CC[C@@H](Nc2ncnc3[nH]c(C#Cc4ccccc4)cc23)C1 [Example 50, (R)-1-(3-((6-(phenylethynyl)-7H-pyrrolo[2,3-d]pyrimidin-4-yl)amino)pyrrolidin-1-yl)prop-2-en-1-one] | 11 | 0.009
C=CC(=O)N1CC[C@@H](Nc2ncnc3[nH]c(C#Cc4ccccc4F)cc23)C1 [Example 51, (R)-1-(3-((6-((2-fluorophenyl)ethynyl)-7H-pyrrolo[2,3-d]pyrimidin-4-yl)amino)pyrrolidin-1-yl)prop-2-en-1-one] | 18 | 0.016
